The test system of test [1] is Enterococcus gallinarum 245. Put plainly: broth micro-dilution MIC. It is filed as cell-based. Conditions: Enterococcus gallinarum 245. The protocol: (§1) The formula I compounds have in vitro and in vivo activity against Gram-positive pathogenic bacteria. The MIC's were determined using a standard broth micro-dilution assay.
In general terms: Dilution methods test growth across graded concentrations, often in twofold steps.

The test system of test [2] is Streptococcus pneumoniae P1. Put plainly: broth micro-dilution MIC. It is filed as cell-based. Here is the method: as §1
The test system of another test is Entercoccus faecium 180. The test is described as follows: broth micro-dilution MIC. It is filed as cell-based. The following applies: Entercoccus faecium 180. Here is the method:
as §1

For test [3], the system named is vancomycin-susceptible enterococci. The test is described as follows: broth micro-dilution, mean geometric MIC. It is filed as cell-based, Enterococcus faecium and Enterococcus faecalis. Conditions: enterococci, 24-hour incubation.
Test [4] deals with Streptococcus pyogenes C203. Put plainly: broth micro-dilution MIC. It is filed as cell-based. Here is the method: (§2) The MIC's were determined using a standard broth micro-dilution assay.
Test [5] deals with Entercoccus faecium 180-1. The test is described as follows: broth micro-dilution MIC. It is filed as cell-based. Here is the method:
as §2

The test system of the next test is Entercoccus faecium 2041. Put plainly: broth micro-dilution MIC. It is filed as cell-based. Conditions: Entercoccus faecium 2041. The protocol:
as §1

Test [6] has as its system vancomycin-resistant enterococci. Put plainly: broth micro-dilution, mean geometric MIC. It is filed as cell-based, Enterococcus faecium and Enterococcus faecalis. Conditions: enterococci, 24-hour incubation.
The test system of test [7] is Staphylococcus aureus 446. The test is described as follows: broth micro-dilution MIC. It is filed as cell-based. Here is the method: as §2
The test system of the next test is Entercoccus faecium 276. Put plainly: broth micro-dilution MIC. It is filed as cell-based. Here is the method:
as §2

In test [8] the test system is Staphylococcus haemolyticus 415. Put plainly: broth micro-dilution MIC. It is filed as cell-based. Here is the method:
as §1

Test [9] deals with Staphylococcus haemolyticus 105. The test is described as follows: broth micro-dilution MIC. It is filed as cell-based. The protocol:
as §1

Test [10] deals with Staphylococcus epidermidis 270. The test is described as follows: broth micro-dilution MIC. It is filed as cell-based. Here is the method: as §1
Test [11] relates to Staphylococcus aureus S13E. It is filed as cell-based. Here is the method:
as §2

The test system of test [12] is Staphylococcus aureus SA1199B. It is filed as cell-based. Here is the method: as §2
For test [13], the system named is Staphylococcus aureus X400. The test is described as follows: broth micro-dilution MIC. It is filed as cell-based. Here is the method:
as §2

Test [14] relates to Staphylococcus aureus X778. Put plainly: broth micro-dilution MIC. It is filed as cell-based. The protocol:
as §2

Test [15] has as its system Staphylococcus aureus 447. The test is described as follows: broth micro-dilution MIC. It is filed as cell-based. Here is the method: as §2

The record followed here is patent US5840684A, “Glycopeptide antibiotic derivatives” (Eli Lilly and Company, priority 1995, dated 1998).

In brackets after ≈: the same amount, converted by molar mass.

The term MIC denotes the smallest concentration in the dilution series that meets the test's criterion for growth inhibition. A higher MIC goes with a need for much substance. As to `CCCCCCCCc1ccc(-c2ccc(CNC3(C)CC(OC4C(Oc5c6cc7cc5Oc5ccc(cc5Cl)C(OC5CC(C)(N)C(O)C(C)O5)C5NC(=O)C(NC(=O)C7NC(=O)C(CC(N)=O)NC(=O)C(NC(=O)C(CC(C)C)NC)C(O)c7ccc(c(Cl)c7)O6)c6ccc(O)c(c6)-c6c(O)cc(O)cc6C(C(=O)O)NC5=O)OC(CO)C(O)C4O)OC(C)C3O)cc2)cc1` (stereo not shown) [Compound 21], the MIC in test [1] was 8 µg/mL (≈ 4.28 µM); in test [2], 0.5 µg/mL (≈ 0.267 µM); in the test on Entercoccus faecium 180 it was 8 µg/mL (≈ 4.28 µM); in [4], 2 µg/mL (≈ 1.07 µM); in test [5] it was 8 µg/mL (≈ 4.28 µM). Besides, in test [3], the “mean geometric MIC, Vancomycin Sensitive Strains” value worked out at 4.3 µg/mL.
Turning to `CCCCCCCCOc1ccc(-c2ccc(CNC3(C)CC(OC4C(Oc5c6cc7cc5Oc5ccc(cc5Cl)C(OC5CC(C)(N)C(O)C(C)O5)C5NC(=O)C(NC(=O)C7NC(=O)C(CC(N)=O)NC(=O)C(NC(=O)C(CC(C)C)NC)C(O)c7ccc(c(Cl)c7)O6)c6ccc(O)c(c6)-c6c(O)cc(O)cc6C(C(=O)O)NC5=O)OC(CO)C(O)C4O)OC(C)C3O)cc2)cc1` (stereo not shown) [Compound 23], the MIC in test [1] is 8 µg/mL (≈ 4.24 µM); in test [2], 0.5 µg/mL (≈ 0.265 µM); with Entercoccus faecium 2041, 32 µg/mL (≈ 17 µM); in test [4], 1 µg/mL (≈ 0.53 µM); in [7], 38 µg/mL (≈ 20.1 µM); in test [5], 32 µg/mL (≈ 17 µM). Further, the MIC against Entercoccus faecium 276 was 32 µg/mL (≈ 17 µM). For the same compound, the “mean geometric MIC, Vancomycin Resistant Strains” value in test [6] stood at 5.7 µg/mL. Also, the “mean geometric MIC, Vancomycin Sensitive Strains” value in [3] came out at 2.0 µg/mL.
For the compound `CNC(CC(C)C)C(=O)NC1C(=O)NC(CC(N)=O)C(=O)NC2C(=O)NC3C(=O)NC(C(=O)NC(C(=O)O)c4cc(O)cc(O)c4-c4cc3ccc4O)C(OC3CC(C)(N)C(O)C(C)O3)c3ccc(c(Cl)c3)Oc3cc2cc(c3OC2OC(CO)C(O)C(O)C2OC2CC(C)(NCCc3ccc(Cc4ccccc4)cc3)C(O)C(C)O2)Oc2ccc(cc2Cl)C1O` (stereo not shown) [Compound 35], the minimum inhibitory concentration (MIC) in test [8] was 4 µg/mL (≈ 2.24 µM); in [1], at most 0.06 µg/mL; in test [9], 2 µg/mL (≈ 1.12 µM); in the test on Entercoccus faecium 180, 1 µg/mL (≈ 0.56 µM); in test [10], 1 µg/mL (≈ 0.56 µM); with Entercoccus faecium 2041, at most 0.06 µg/mL. For the same compound, the MIC was at most 0.06 µg/mL in [11], 0.5 µg/mL (≈ 0.28 µM) in [7], at most 0.06 µg/mL in [5] and at most 0.06 µg/mL against Entercoccus faecium 276. Also, in test [6], the “mean geometric MIC, Vancomycin Resistant Strains” value was determined as 5.6 µg/mL.
In the case of `CNC(CC(C)C)C(=O)NC1C(=O)NC(CC(N)=O)C(=O)NC2C(=O)NC3C(=O)NC(C(=O)NC(C(=O)O)c4cc(O)cc(O)c4-c4cc3ccc4O)C(OC3CC(C)(N)C(O)C(C)O3)c3ccc(c(Cl)c3)Oc3cc2cc(c3OC2OC(CO)C(O)C(O)C2OC2CC(C)(NCc3ccc(C(F)(F)F)cc3)C(O)C(C)O2)Oc2ccc(cc2Cl)C1O` (stereo not shown) [Compound 37], the MIC in test [8] is 1 µg/mL (≈ 0.571 µM); in test [2], at most 0.06 µg/mL; in [11], at most 0.06 µg/mL; in test [12], at most 0.06 µg/mL; in [4] it was at most 0.06 µg/mL; in test [7], 0.5 µg/mL (≈ 0.286 µM). For the same compound, the MIC in test [5] was at most 0.06 µg/mL; in the test with Entercoccus faecium 276 it was 1 µg/mL (≈ 0.571 µM). Also, the “mean geometric MIC, Vancomycin Resistant Strains” value in [6] was determined as 2.4 µg/mL.
Turning to `CCCCCOc1ccc(-c2ccc(CNC3(C)CC(OC4C(Oc5c6cc7cc5Oc5ccc(cc5Cl)C(OC5CC(C)(N)C(O)C(C)O5)C5NC(=O)C(NC(=O)C7NC(=O)C(CC(N)=O)NC(=O)C(NC(=O)C(CC(C)C)NC)C(O)c7ccc(c(Cl)c7)O6)c6ccc(O)c(c6)-c6c(O)cc(O)cc6C(C(=O)O)NC5=O)OC(CO)C(O)C4O)OC(C)C3O)cc2)cc1` (stereo not shown) [Compound 40], in test [6], the “mean geometric MIC, Vancomycin Resistant Strains” value turned out to be 0.50 µg/mL. For the same compound, the “mean geometric MIC, Vancomycin Sensitive Strains” value in [3] is 0.31 µg/mL.
On to `CNC(CC(C)C)C(=O)NC1C(=O)NC(CC(N)=O)C(=O)NC2C(=O)NC3C(=O)NC(C(=O)NC(C(=O)O)c4cc(O)cc(O)c4-c4cc3ccc4O)C(OC3CC(C)(N)C(O)C(C)O3)c3ccc(c(Cl)c3)Oc3cc2cc(c3OC2OC(CO)C(O)C(O)C2OC2CC(C)(NCC(C)=Cc3ccc(C(C)(C)C)cc3)C(O)C(C)O2)Oc2ccc(cc2Cl)C1O` (stereo not shown) [Compound 42], for which, in test [6], the “mean geometric MIC, Vancomycin Resistant Strains” value is 1.7 µg/mL. Moreover, the “mean geometric MIC, Vancomycin Sensitive Strains” value in test [3] worked out at 0.089 µg/mL.
On to `CNC(CC(C)C)C(=O)NC1C(=O)NC(CC(N)=O)C(=O)NC2C(=O)NC3C(=O)NC(C(=O)NC(C(=O)O)c4cc(O)cc(O)c4-c4cc3ccc4O)C(OC3CC(C)(N)C(O)C(C)O3)c3ccc(c(Cl)c3)Oc3cc2cc(c3OC2OC(CO)C(O)C(O)C2OC2CC(C)(NCc3c(O)ccc4ccccc34)C(O)C(C)O2)Oc2ccc(cc2Cl)C1O` (stereo not shown) [Compound 44], for which the “mean geometric MIC, Vancomycin Resistant Strains” value in test [6] turned out to be 13 µg/mL. In [3], the “mean geometric MIC, Vancomycin Sensitive Strains” value was 0.50 µg/mL.
On to `CNC(CC(C)C)C(=O)NC1C(=O)NC(CC(N)=O)C(=O)NC2C(=O)NC3C(=O)NC(C(=O)NC(C(=O)O)c4cc(O)cc(O)c4-c4cc3ccc4O)C(OC3CC(C)(N)C(O)C(C)O3)c3ccc(c(Cl)c3)Oc3cc2cc(c3OC2OC(CO)C(O)C(O)C2OC2CC(C)(NCc3cc(-c4ccccc4)nc4ccc(OC)cc34)C(O)C(C)O2)Oc2ccc(cc2Cl)C1O` (stereo not shown) [Compound 45], for which, in test [6], the “mean geometric MIC, Vancomycin Resistant Strains” value is 2.0 µg/mL. Besides, the “mean geometric MIC, Vancomycin Sensitive Strains” value in test [3] came out at 0.50 µg/mL.
Turning to `CNC(CC(C)C)C(=O)NC1C(=O)NC(CC(N)=O)C(=O)NC2C(=O)NC3C(=O)NC(C(=O)NC(C(=O)O)c4cc(O)cc(O)c4-c4cc3ccc4O)C(OC3CC(C)(N)C(O)C(C)O3)c3ccc(c(Cl)c3)Oc3cc2cc(c3OC2OC(CO)C(O)C(O)C2OC2CC(C)(NCC3CC=CCC3)C(O)C(C)O2)Oc2ccc(cc2Cl)C1O` (stereo not shown) [Compound 47], the “mean geometric MIC, Vancomycin Resistant Strains” value in test [6] turned out to be 4.7 µg/mL. For the same compound, the “mean geometric MIC, Vancomycin Sensitive Strains” value in test [3] amounted to 0.57 µg/mL.
The like results for `CNC(CC(C)C)C(=O)NC1C(=O)NC(CC(N)=O)C(=O)NC2C(=O)NC3C(=O)NC(C(=O)NC(C(=O)O)c4cc(O)cc(O)c4-c4cc3ccc4O)C(OC3CC(C)(N)C(O)C(C)O3)c3ccc(c(Cl)c3)Oc3cc2cc(c3OC2OC(CO)C(O)C(O)C2OC2CC(C)(NCc3ccc4c(c3)OCO4)C(O)C(C)O2)Oc2ccc(cc2Cl)C1O` (stereo not shown) [Compound 48] were, in that order, 4.8 µg/mL and 0.50 µg/mL.
Take `CNC(CC(C)C)C(=O)NC1C(=O)NC(CC(N)=O)C(=O)NC2C(=O)NC3C(=O)NC(C(=O)NC(C(=O)O)c4cc(O)cc(O)c4-c4cc3ccc4O)C(OC3CC(C)(N)C(O)C(C)O3)c3ccc(c(Cl)c3)Oc3cc2cc(c3OC2OC(CO)C(O)C(O)C2OC2CC(C)(NCc3ccc(C(O)c4ccccc4)cc3)C(O)C(C)O2)Oc2ccc(cc2Cl)C1O` (stereo not shown) [Compound 109]: the “mean geometric MIC, Vancomycin Resistant Strains” value in test [6] turned out to be 72 µg/mL. In test [3], the “mean geometric MIC, Vancomycin Sensitive Strains” value is 0.22 µg/mL.
In the case of `CCOC(c1ccccc1)c1ccc(CNC2(C)CC(OC3C(Oc4c5cc6cc4Oc4ccc(cc4Cl)C(OC4CC(C)(N)C(O)C(C)O4)C4NC(=O)C(NC(=O)C6NC(=O)C(CC(N)=O)NC(=O)C(NC(=O)C(CC(C)C)NC)C(O)c6ccc(c(Cl)c6)O5)c5ccc(O)c(c5)-c5c(O)cc(O)cc5C(C(=O)O)NC4=O)OC(CO)C(O)C3O)OC(C)C2O)cc1` (stereo not shown) [Compound 126], the MIC was 2 µg/mL (≈ 1.1 µM) in test [8]; 2 µg/mL (≈ 1.1 µM) in test [1]; 0.5 µg/mL (≈ 0.275 µM) in [9]; at most 0.06 µg/mL in test [2]; 1 µg/mL (≈ 0.55 µM) in the test on Entercoccus faecium 180; 1 µg/mL (≈ 0.55 µM) in test [10]. The MIC was at most 0.06 µg/mL with Entercoccus faecium 2041; 0.5 µg/mL (≈ 0.275 µM) in test [11]; 1 µg/mL (≈ 0.55 µM) in test [12]; 1 µg/mL (≈ 0.55 µM) in test [13]; at most 0.06 µg/mL in [4]; 0.5 µg/mL (≈ 0.275 µM) in test [14]. The MIC is 1 µg/mL (≈ 0.55 µM) in [15], 2 µg/mL (≈ 1.1 µM) in [7], at most 0.06 µg/mL in [5] and 1 µg/mL (≈ 0.55 µM) against Entercoccus faecium 276. In test [6], the “mean geometric MIC, Vancomycin Resistant Strains” value was found to be 2.4 µg/mL. Besides, in test [3], the “mean geometric MIC, Vancomycin Sensitive Strains” value was determined as 0.11 µg/mL.
